Reference: patent publication US20240043444A1, “METHODS FOR TREATING SPINOCEREBELLAR ATAXIA TYPE 3” (PTC Therapeutics, Inc., priority 2021, published 2024)

How the values were obtained:
[1] = system: Endogenous Total ATXN3 (tATXN3) Protein; experiment: Endogenous Total ATXN3 (tATXN3) Protein Assay (MSD immunoassay of cell lysates); type: cell-based; settings: cells incubated with compound 48 h; 7-point concentration curve; MSD plate readout
Experimental: Meso Scale Discovery (MSD) 96-well or 384-well plates were coated overnight at 4° C. with Ataxin 3 mouse monoclonal antibody (Invitrogen, MA3-082) at a concentration of […] in PBS (30 μL per well). Plates were then washed three times with 300 μL wash buffer (0.05% TWEEN®-20, polyethylene glycol sorbitan monolaurate, in PBS) and blocked (Meso Scale Diagnostics, R93BA-1; 5% BSA in PBS) for 2 h at room temperature with rotational shaking and then washed three times with wash buffer.
(§1) Test compounds were serially diluted 3.16-fold in 100% DMSO to generate a 7-point concentration curve. Aliquots of 0.5 μL of diluted compounds were transferred to a 96-well flat bottom plate by a liquid handler. An aliquot of 0.5 μL DMSO was also transferred to separate wells and used as controls. Duplicate samples were set up for each compound concentration and for the DMSO control.
Cells were thawed and incubated in cell culture media (DMEM, 10% FBS, and 1% antibiotic cocktail) for 72 h. Cells were trypsinized, counted, and re-suspended to a concentration of 100,000 cells/mL in cell culture media. A 100 μL aliquot of the cell suspensions were plated at 10,000 cells per well in the compound containing 96 well microtiter plate and incubated for in a cell culture incubator (37° C., 5% CO2, 100% relative humidity). After 48 h, the medium was removed and 50-100 μL of lysis buffer (Meso Scale Diagnostics, R60TX-2) containing 1× halt protease inhibitor cocktail of (Thermo Scientific, Halt™ Protease Inhibitor Cocktail, 78430) per well was added to cells to provide a “cell lysate”. The plate was placed on a shaker at 4° C. for 30 minutes, then stored at −80° C.
Cell lysate samples (25 μL) were transferred to the antibody-coated MSD plate and incubated overnight at 4° C. After removal of the lysates, the plate was washed three times with wash buffer, and 25 μL of Ataxin 3 recombinant rabbit monoclonal antibody (Invitrogen, #702788) secondary antibody (diluted to 0.25 μg/mL in 0.05% TWEEN®-20 in blocking buffer) was added to each well and incubated with shaking for 1-2 h at room temperature. Following incubation with the secondary antibody, the wells were rinsed with wash buffer and then 25 μL of Anti Rabbit Antibody Goat SULFO-TAG Labeled (Meso Scale Diagnostics, R32AB-1) detecting antibody (diluted to 0.25 μg/mL in 0.05% TWEEN®-20 in blocking buffer) was added to each well and incubated with shaking for 1 h at room temperature. After rinsing three times with wash buffer, 150 μL of Read Buffer T with surfactant (tris-based buffer containing tripropylamine, Meso Scale Diagnostics, R92TC-1) were added to each empty well, and the plate was imaged on a SI 6000 imager (MSD) according to manufacturers' instructions provided for 96- or 384-well plates.

[2] = system: ATXN3 Pre-mRNA (exon 4 skipping); experiment: RT-qPCR Assay to Quantify Exon 4 Skipping in ATXN3 Pre-mRNA in Cells; type: cell-based; settings: cells incubated with compound 24 h, normalised to GAPDH, 7-point concentration curve
Experimental: as §1
Cells were thawed and incubated in cell culture media (DMEM, 10% FBS, and 1% antibiotic cocktail) for 72 h. Cells were trypsinized, counted, and re-suspended to a concentration of 100,000 cells/mL in cell culture media. A 100 μL aliquot of the cell suspensions were plated at 10,000 cells per well in the compound containing 96 well microtiter plate and incubated for in a cell culture incubator (37° C., 5% CO2, 100% relative humidity).
After 24 h, media was aspirated from the cells and 50 μL of the RCL2 lysis buffer (10 mM Tris-HCL pH 7.4, 150 mM NaCl, 0.33% IGEPAL® CA-630) was added to each well and incubated at room temperature for 1 min. Chilled nuclease free water (50 μL per well) was added and the plates were immediately transferred on ice. After 1 min on ice, plates were frozen at −80° C. overnight.
Preparation of RT-qPCR Reaction Mixture:
An aliquot of 2 μL/well of the cell lysates was transferred using the liquid handler to the Armadillo 384-Well PCR plate containing 8 μL/well of the RT-qPCR reaction mixture that was prepared as detailed above. The plates were then sealed with MicroAmp™ Optical Adhesive Film followed by spinning down for 1 min and placed in the CFX384 thermocycler (BioRad).
The RT-qPCR was carried out at the following temperatures for the indicated time: • Step 1: 48° C. (30 min) • Step 2: 95° C. (10 min) • Step 3: 95° C. (15 sec) • Step 4: 60° C. (1 min); then, repeated Steps 3 and 4 for a total of 40 cycles.
The percent exon 4 skipping was calculated for each dose of compound treatment using Equations 1 and 2.
Data were fit to a dose response curve and the IC50 was interpolated using XLfit® statistical and curve fitting package.
An IC50 value between >2.0 μM and ≤3.0 μM is indicated by one star (*). […] IC50 value between >0.5 μM and ≤1.0 μM is indicated by four stars (****). An IC50 value ≤0.5 μM is indicated by five stars (*****).

IC50 (average, total ATXN3 protein) [1] | Structure (SMILES) | IC50 [1] | IC50 [2] | IC50 (exon 4 skipping in ATXN3 pre-mRNA) [2]
 | CC(C)[C@H](N)Cc1cc2nc(Cl)nc(NCc3ccco3)c2s1 [Cpd 5, 6-[(2R)-2-amino-3-methylbutyl]-2-chloro-N-[(furan-2-yl)methyl]thieno[3,2-d]pyrimidin-4-amine] | ≤ 500 nM | 500 to 1000 nM | 
inactive | CC(C)(C)[C@H](N)Cc1cc2nc(Cl)nc(NCc3ccco3)c2s1 [Cpd 7, 6-[(2R)-2-amino-3,3-dimethylbutyl]-2-chloro-N-[(furan-2-yl)methyl]thieno[3,2-d]pyrimidin-4-amine] |  |  | inactive
 | Cc1c(C[C@H](C)N)sc2c(NCc3ccco3)nc(Cl)nc12 [Cpd 12, 6-[(2S)-2-aminopropyl]-2-chloro-N-[(furan-2-yl)methyl]-7-methylthieno[3,2-d]pyrimidin-4-amine] | ≤ 500 nM | ≤ 500 nM | 
 | Cc1nc(NCc2ccco2)c2sc(C[C@H](C)N)c(C)c2n1 [Cpd 15, 6-[(2S)-2-aminopropyl]-N-[(furan-2-yl)methyl]-2,7-dimethylthieno[3,2-d]pyrimidin-4-amine] | 500 to 1000 nM | ≤ 500 nM | 
inactive | Cc1csc2c(NCc3ccncc3)nc(Cl)nc12 [Cpd 23, 2-chloro-7-methyl-N-[(pyridin-4-yl)methyl]thieno[3,2-d]pyrimidin-4-amine] |  |  | inactive
 | Cc1ccc(CNc2nc(Cl)nc3c(C)c(C[C@H](C)N)sc23)o1 [Cpd 24, 6-[(2S)-2-aminopropyl]-2-chloro-7-methyl-N-[(5-methylfuran-2-yl)methyl]thieno[3,2-d]pyrimidin-4-amine] | > 2000 nM | 1500 to 2000 nM | 
 | Cc1c(C[C@H](C)N)sc2c(NCc3cccs3)nc(Cl)nc12 [Cpd 28, 6-[(2S)-2-aminopropyl]-2-chloro-7-methyl-N-[(thiophen-2-yl)methyl]thieno[3,2-d]pyrimidin-4-amine] | ≤ 500 nM | ≤ 500 nM | 
 | Cc1c(C[C@H](C)N)sc2c(NCc3nccs3)nc(Cl)nc12 [Cpd 29, 6-[(2S)-2-aminopropyl]-2-chloro-7-methyl-N-[(1,3-thiazol-2-yl)methyl]thieno[3,2-d]pyrimidin-4-amine] | ≤ 500 nM | ≤ 500 nM | 
 | Cc1ccoc1CNc1nc(Cl)nc2c(C)c(C[C@H](C)N)sc12 [Cpd 30, 6-[(2S)-2-aminopropyl]-2-chloro-7-methyl-N-[(3-methylfuran-2-yl)methyl]thieno[3,2-d]pyrimidin-4-amine] | 1500 to 2000 nM | 1000 to 1500 nM | 
 | Cc1cnc(CNc2nc(Cl)nc3c(C)c(C[C@H](C)N)sc23)s1 [Cpd 31, 6-[(2S)-2-aminopropyl]-2-chloro-7-methyl-N-[(5-methyl-1,3-thiazol-2-yl)methyl]thieno[3,2-d]pyrimidin-4-amine] | > 2000 nM | 2000 to 3000 nM | 
 | Cc1c(C[C@H](C)N)sc2c(NCc3ccc(F)s3)nc(Cl)nc12 [Cpd 33, 6-[(2S)-2-aminopropyl]-2-chloro-N-[(5-fluorothiophen-2-yl)methyl]-7-methylthieno[3,2-d]pyrimidin-4-amine] | ≤ 500 nM | ≤ 500 nM | 
 | Cc1c(C[C@H](C)N)sc2c(NCc3ccncc3F)nc(Cl)nc12 [Cpd 35, 6-[(2S)-2-aminopropyl]-2-chloro-N-[(3-fluoropyridin-4-yl)methyl]-7-methylthieno[3,2-d]pyrimidin-4-amine] | ≤ 500 nM | ≤ 500 nM | 
 | Cc1c(C[C@H](C)N)sc2c(NCc3ccco3)nc(Br)nc12 [Cpd 38, 6-[(2S)-2-aminopropyl]-2-bromo-N-[(furan-2-yl)methyl]-7-methylthieno[3,2-d]pyrimidin-4-amine] | ≤ 500 nM | ≤ 500 nM | 
 | Cc1c(C[C@H](C)N)sc2c(NCc3ccno3)nc(Cl)nc12 [Cpd 39, 6-[(2S)-2-aminopropyl]-2-chloro-7-methyl-N-[(1,2-oxazol-5-yl)methyl]thieno[3,2-d]pyrimidin-4-amine] | ≤ 500 nM | ≤ 500 nM | 
 | C[C@H](N)Cc1sc2c(NCc3ccco3)nc(Cl)nc2c1Br [Cpd 40, 6-[(2S)-2-aminopropyl]-7-bromo-2-chloro-N-[(furan-2-yl)methyl]thieno[3,2-d]pyrimidin-4-amine] | ≤ 500 nM | ≤ 500 nM | 
inactive | Cc1c([C@H](C)N)sc2c(NCc3ccco3)nc(Cl)nc12 [Cpd 47, 6-[(1S)-1-aminoethyl]-2-chloro-N-[(furan-2-yl)methyl]-7-methylthieno[3,2-d]pyrimidin-4-amine] |  |  | inactive
 | Cc1c(C[C@@H](N)CCF)sc2c(NCc3ccco3)nc(Cl)nc12 [Cpd 51, 6-[(2S)-2-amino-4-fluorobutyl]-2-chloro-N-[(furan-2-yl)methyl]-7-methylthieno[3,2-d]pyrimidin-4-amine] | ≤ 500 nM | ≤ 500 nM | 
 | Cc1c(C[C@@H]2CCOC(=O)N2)sc2c(NCc3ccco3)nc(Cl)nc12 [Cpd 52, (4S)-4-[(2-chloro-4-{[(furan-2-yl)methyl]amino}-7-methylthieno[3,2-d]pyrimidin-6-yl)methyl]-1,3-oxazinan-2-one] | > 2000 nM |  | inactive
 | Cc1c(C[C@H](C)N)sc2c(NCc3ncccn3)nc(Cl)nc12 [Cpd 55, 6-[(2S)-2-aminopropyl]-2-chloro-7-methyl-N-[(pyrimidin-2-yl)methyl]thieno[3,2-d]pyrimidin-4-amine] | > 2000 nM | 2000 to 3000 nM | 
 | Cc1c(C[C@@H](N)CO)sc2c(NCc3cccs3)nc(Cl)nc12 [Cpd 56, (2R)-2-amino-3-(2-chloro-7-methyl-4-{[(thiophen-2-yl)methyl]amino}thieno[3,2-d]pyrimidin-6-yl)propan-1-ol] | ≤ 500 nM | ≤ 500 nM | 
inactive | Cc1c(C2CCNC2)sc2c(NCc3ccco3)nc(Cl)nc12 (stereo not drawn) [Cpd 57, 2-chloro-N-[(furan-2-yl)methyl]-7-methyl-6-(pyrrolidin-3-yl)thieno[3,2-d]pyrimidin-4-amine] |  |  | inactive
 | Cc1c(C[C@H](C)N)sc2c(NCc3ncccc3F)nc(Cl)nc12 [Cpd 59, 6-[(2S)-2-aminopropyl]-2-chloro-N-[(3-fluoropyridin-2-yl)methyl]-7-methylthieno[3,2-d]pyrimidin-4-amine] | 1500 to 2000 nM | 1000 to 1500 nM | 
 | Cc1c(C[C@H](C)N)sc2c(NCc3cccnc3F)nc(Cl)nc12 [Cpd 60, 6-[(2S)-2-aminopropyl]-2-chloro-N-[(2-fluoropyridin-3-yl)methyl]-7-methylthieno[3,2-d]pyrimidin-4-amine] | > 2000 nM | 2000 to 3000 nM | 

Structure (SMILES) | IC50 (average, total ATXN3 protein) [1] | IC50 [1] | IC50 [2] | IC50 (exon 4 skipping in ATXN3 pre-mRNA) [2]
Cc1csc(CNc2nc(Cl)nc3c(C)c(C[C@H](C)N)sc23)n1 [Cpd 27, 6-[(2S)-2-aminopropyl]-2-chloro-7-methyl-N-[(4-methyl-1,3-thiazol-2-yl)methyl]thieno[3,2-d]pyrimidin-4-amine] | inactive |  | 2000 to 3000 nM | 
